# Reference: patent US10597382B2, “Tetrazole containing apoptosis signal-regulating kinase 1 inhibitors and methods of use thereof” (ENANTA PHARMACEUTICALS, INC., priority 2017, dated 2020)
# Target: ASK1 kinase (Homo sapiens (Human), UniProt Q99683)
# Assay: HTRF KinEASE assay of ASK1 kinase activity inhibition
# Format: biochemical
# Settings: HTRF KinEASE-STK TR-FRET; 5 nM ASK1, 1 uM STK3 peptide substrate, 100 uM ATP, 3 hours
# Protocol: • The ability (IC50) of compounds to inhibit ASK1 kinase activity was determined by HTRF® KinEASE™ Assay System
# ASK1 kinase was from Thermofisher (Catalogue # PV4011), ATP was from Sigma (Catalogue # A7699), HTRF® KinEASE™ Assay System was obtained from Cisbio (Bedford, Mass.). ½ Area plate was from Perkin Elmer (Catalogue #6005560). HTRF® KinEASE™-STK is a generic method for measuring serine/threonine kinase activities using time-resolved fluorescence resonance energy transfer (TR-FRET) immunoassay. The IC50 value for each compound was determined in the presence of compound (various concentration from 0 to 10 uM) and a fixed amount of ATP, peptide substrates. Test compound, 1 uM STK3 peptide substrate, 5 nM of ASK1 kinase are incubated with kinase reaction buffer, containing 50 mM HEPES pH 7.5, 0.01% BRIJ-35, 10 mM MgCl2, and 1 mM EGTA for 30 minutes, then 100 uM ATP is added to start kinase reaction and incubated for 3 hours. The STK3-antibody labeled with Eu^3+-Cryptate and 125 nM streptavidin-XL665 are mixed in a single addition with stop reagents provided by the Cisbio kit used to stop the kinase reaction. Fluorescence is detected using Envision Multilabeled 2014 reader from PerkinElmer. The Fluorescence is measured at 615 nm (Cryptate) and 665 nm (XL665) and a ratio of 665 nm/615 nm is calculated for each well. The resulting TR-FRET is proportional to the phosphorylation level. Staurosporine was used as the positive control. IC50 was determined by Xlfit 5.3.
# By using above method, the inhibition of ASK1 was tested for the compound of formula (I). IC50 ranges are as follows: A<1 nM; 1 nM<[…]B<10 nM; 10 nM<C<100 nM; 100 nM<D<1 μM; E>1 μM.
# Chain of ASK1 kinase (Q99683 whole entry): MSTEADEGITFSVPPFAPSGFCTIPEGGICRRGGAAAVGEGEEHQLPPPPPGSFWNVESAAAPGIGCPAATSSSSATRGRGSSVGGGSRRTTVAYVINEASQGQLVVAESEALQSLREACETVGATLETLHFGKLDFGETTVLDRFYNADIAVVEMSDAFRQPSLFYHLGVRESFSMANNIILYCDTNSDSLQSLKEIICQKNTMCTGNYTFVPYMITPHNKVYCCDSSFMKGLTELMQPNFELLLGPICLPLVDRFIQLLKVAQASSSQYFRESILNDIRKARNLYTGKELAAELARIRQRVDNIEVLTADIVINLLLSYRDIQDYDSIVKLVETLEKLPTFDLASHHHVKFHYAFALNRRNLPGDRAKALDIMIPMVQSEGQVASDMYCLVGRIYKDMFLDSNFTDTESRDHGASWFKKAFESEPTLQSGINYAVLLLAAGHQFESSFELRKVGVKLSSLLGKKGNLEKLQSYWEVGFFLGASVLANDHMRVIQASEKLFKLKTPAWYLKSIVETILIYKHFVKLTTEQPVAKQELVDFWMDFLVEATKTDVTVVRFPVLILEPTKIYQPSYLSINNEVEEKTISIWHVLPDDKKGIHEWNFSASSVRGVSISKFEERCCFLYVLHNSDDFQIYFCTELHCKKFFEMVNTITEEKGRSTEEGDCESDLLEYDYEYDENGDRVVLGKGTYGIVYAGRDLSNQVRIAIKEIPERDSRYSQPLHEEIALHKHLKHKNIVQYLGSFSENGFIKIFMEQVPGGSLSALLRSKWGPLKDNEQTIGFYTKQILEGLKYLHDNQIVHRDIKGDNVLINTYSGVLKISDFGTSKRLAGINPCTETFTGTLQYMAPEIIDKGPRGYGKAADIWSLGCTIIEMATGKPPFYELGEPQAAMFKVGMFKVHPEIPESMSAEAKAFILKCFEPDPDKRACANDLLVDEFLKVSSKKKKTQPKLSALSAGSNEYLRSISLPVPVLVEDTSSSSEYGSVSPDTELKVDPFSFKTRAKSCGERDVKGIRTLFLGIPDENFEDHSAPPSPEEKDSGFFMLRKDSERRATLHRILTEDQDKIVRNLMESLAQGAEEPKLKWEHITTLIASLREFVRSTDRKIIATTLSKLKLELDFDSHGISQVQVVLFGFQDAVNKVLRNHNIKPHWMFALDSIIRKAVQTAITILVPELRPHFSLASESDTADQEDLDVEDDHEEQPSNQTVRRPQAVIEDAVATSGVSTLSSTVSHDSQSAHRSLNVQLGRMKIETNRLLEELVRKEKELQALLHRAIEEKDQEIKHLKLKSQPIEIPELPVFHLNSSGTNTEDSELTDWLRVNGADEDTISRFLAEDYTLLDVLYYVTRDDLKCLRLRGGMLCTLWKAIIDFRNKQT
row,SMILES,IC50 [nM]
1,"CC(C)c1nnnn1-c1cccc(N2Cc3ccc(-n4cnc(C5CC5)c4)cc3C2=O)n1 [Example 1, 6-(4-cyclopropyl-1H-imidazol-1-yl)-2-(6-(5-isopropyl-1H-tetrazol-1-yl)pyridine-2-yl)isoindolin-1-one]",1 to 10
2,"CC(C)n1nnnc1-c1cccc(N2Cc3ccc(-n4cnc(C5CC5)c4)cc3C2=O)n1 [Example 2, 6-(4-cyclopropyl-1H-imidazol-1-yl)-2-(6-(1-isopropyl-1H-tetrazol-5-yl)pyridine-2-yl)isoindolin-1-one]",10 to 100
3,"C[C@H](CO)n1nnnc1-c1cccc(N2Cc3ccc(-n4cnc(C5CC5)c4)cc3C2=O)n1 [Example 4, I-6-(4-cyclopropyl-1H-imidazol-1-yl)-2-(6-(1-(1-hydroxypropan-2-yl)-1H-tetrazol-5-yl)pyridine-2-yl)isoindolin-1-one]",10 to 100
4,"CC(=O)OC[C@@H](C)n1nnnc1-c1cccc(N2Cc3ccc(OC(C)C)cc3C2=O)n1 [Example 5, I-2-(5-(6-(6-isopropoxy-1-oxoisoindolin-2-yl)pyridine-2-yl)-1H-tetrazol-1-yl)propyl acetate]",> 1000
5,"CC(C)Oc1ccc2c(c1)C(=O)N(c1cccc(-c3nnnn3[C@H](C)CO)n1)C2 [Example 6, I-2-(6-(1-(1-hydroxypropan-2-yl)-1H-tetrazol-5-yl)pyridine-2-yl)-6-isopropoxyisoindolin-1-one]",1 to 10
6,CC(C)c1nnnn1-c1cccc(N2Cc3ccc(N4CCOCC4)cc3C2=O)n1 [Example 8],100 to 1000
7,Cc1ncccc1-c1ccc2c(c1)C(=O)N(c1cccc(-n3nnnc3C(C)C)n1)C2 [Example 11],100 to 1000
8,Cc1ccncc1-c1ccc2c(c1)C(=O)N(c1cccc(-n3nnnc3C(C)C)n1)C2 [Example 12],100 to 1000
9,Cc1cc2c(cc1OC(C)C)C(=O)N(c1cccc(-c3nnnn3[C@H](C)CO)n1)C2 [Example 14],1 to 10
10,CC(C)n1nnnc1-c1cccc(N2Cc3ccc(-c4cncc(C5CC5)c4)cc3C2=O)n1 [Example 15],10 to 100
11,CC(C)n1nnnc1-c1cccc(N2Cc3ccc(-c4ccc(C5CC5)nc4)cc3C2=O)n1 [Example 16],10 to 100

# Now from value to compound:
row,IC50 [nM],SMILES
1,100 to 1000,"CC(=O)OC[C@@H](C)n1nnnc1-c1cccc(N2Cc3ccc(-n4cnc(C5CC5)c4)cc3C2=O)n1 [Example 3, I-2-(5-(6-(6-(4-cyclopropyl-1H-imidazol-1-yl)-1-oxoisoindolin-2-yl)pyridine-2-yl)-1H-tetrazol-1-yl)propyl acetate]"
2,10 to 100,CC(C)n1nnnc1-c1cccc(N2Cc3ccccc3C2=O)n1 [Example 7]
3,10 to 100,CC(C)c1nnnn1-c1cccc(N2Cc3ccc(-c4cccnc4)cc3C2=O)n1 [Example 9]
4,10 to 100,CCN1CCN(c2ccc3c(c2)C(=O)N(c2cccc(-n4nnnc4C(C)C)n2)C3)CC1=O [Example 10]
5,1 to 10,CC(C)n1nnnc1-c1cccc(N2Cc3ccc(-c4cccnc4)cc3C2=O)n1 [Example 13]
